How the values were obtained:
human CD73 = molecular target: T1, human CD73 (Homo sapiens, UniProt P21589); assay: Inhibitor activity against CD73 in cell based assay (CD73 expressing CHO-K1 cells); conditions: CHO-K1 cells expressing human CD73, 150 μM AMP, 4 hours of incubation; read-out: CHO-K1 CELL VARIANT: CD73 IC50
T1 construct: expressed in transfected cells
T1 sequence (P21589 27-549): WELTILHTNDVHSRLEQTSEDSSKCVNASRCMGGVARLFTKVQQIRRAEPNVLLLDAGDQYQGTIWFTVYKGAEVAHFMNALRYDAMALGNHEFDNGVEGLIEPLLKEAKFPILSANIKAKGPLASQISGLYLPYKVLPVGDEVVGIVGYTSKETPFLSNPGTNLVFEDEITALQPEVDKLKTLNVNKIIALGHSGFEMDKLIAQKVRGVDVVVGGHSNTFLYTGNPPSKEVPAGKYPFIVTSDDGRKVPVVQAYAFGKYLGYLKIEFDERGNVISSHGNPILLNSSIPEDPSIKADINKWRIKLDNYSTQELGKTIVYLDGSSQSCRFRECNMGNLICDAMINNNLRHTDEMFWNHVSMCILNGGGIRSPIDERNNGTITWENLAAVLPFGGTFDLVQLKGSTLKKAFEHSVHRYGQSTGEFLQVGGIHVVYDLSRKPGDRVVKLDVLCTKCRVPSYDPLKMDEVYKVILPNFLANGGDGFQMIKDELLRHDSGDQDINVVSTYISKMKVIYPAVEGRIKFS
Method: Determine Inhibitor Activity Against CD73 in Cell Based Assay
CD73 expressing CHO-K1 cell clones were generated upon stable transfection of a plasmid expressing human CD73 under the control of CMV promoter. Cells were selected in Ham's F-12K (Kaighn's) media supplemented with 10% fetal bovine serum and 1 mg/ml G418 at 37° C. in a humidified incubator supplied with 5% CO2. The assays were performed as follows. Cells were seeded in a 96 well plate in 50 μL of culture media at a density of 1×10^4 per well. Compound at a maximal concentration of 5 mM was serially diluted 1:3 in DMSO for a total of 8 point titration. A 2 μL aliquot of each dilution point was added to 248 μL culture media and 25 µL was added to each well, providing 10 μM compound at the maximum concentration point. AMP was diluted in culture media and 25 μL was added to each well with a final concentration of 150 μM. 4 wells containing 0.2% DMSO treated cells and AMP served as high controls and 4 wells containing media only with 0.2% DMSO and AMP served as low controls. After 4 hours of incubation, 20 μL of the supernatant was transferred to a 384 well plate. AMP level in supernatant was measured indirectly by adding 5 μL of CellTiter-Glo® 2.0 reagent and 5 μL of ATP with a final concentration of 1 μM. Following incubation of plate at room temperature for 30 minutes, luminescent signal was read on a Tecan plate reader. The percentage inhibition at individual concentrations relative to high and low controls was calculated. The data were analyzed by using nonlinear regression to generate IC50 values.

[1] = molecular target: T2, Human CD73 (amino acid residues 27-549) (Homo sapiens, UniProt P21589); assay: CD73 enzymatic assay (luciferase-based indirect assay, CellTiter-Glo); type: biochemical; conditions: 0.4 nM CD73, 150 μM AMP, 1 hour at room temperature
T2 construct: Human CD73 (amino acid residues 27-549); His tag (N); made in house; host or cells: E. coli
T2 sequence (P21589 27-549): T1 sequence (P21589 27-549)
Procedure, shortened: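 His-tagged human CD73 (27-549) from E. coli, 0.4 nM, with 150 μM AMP in 50 mM HEPES pH 7.4, 0.01% Tween 20; 1 h at room temperature. AMP remaining read by CellTiter-Glo 2.0 luminescence with 1 μM final ATP after 30 min. IC50 from nonlinear regression of % inhibition.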

Row | Structure (SMILES) | IC50 (human CD73) [µM] | IC50 [1] [µM]
1 | CS(=O)(=O)NC1CCC(NC(=O)O[C@@H]2CCN(c3cn[nH]c(=O)c3Cl)C2)CC1 (stereo partly drawn) [P-0116, (R)-1-(5-chloro-6-oxo-1,6-dihydropyridazin-4-yl)pyrrolidin-3-yl (4-(methylsulfonamido)cyclohexyl)carbamate] | 0.001 to 10 | 0.001 to 10
2 | O=C(NC1(C2CC2)CC1)O[C@@H]1CCN(c2cn[nH]c(=O)c2Cl)C1 [P-0118, (R)-1-(5-chloro-6-oxo-1,6-dihydropyridazin-4-yl)pyrrolidin-3-yl [1,1′-bi(cyclopropan)]-1-ylcarbamate] | 0.001 to 10 | 0.001 to 10
3 | CC(C)(C)OC(=O)NC1CCC(NC(=O)O[C@@H]2CCN(c3cn[nH]c(=O)c3Cl)C2)CC1 (stereo partly drawn) [P-0124, (R)-tert-butyl (1-(5-chloro-6-oxo-1,6-dihydropyridazin-4-yl)pyrrolidin-3-yl) cyclohexane-1,4-diyldicarbamate] | 0.001 to 10 | 0.001 to 10
4 | N#Cc1c(N2CC[C@@H](OC(=O)NC3CCCCC3)C2)cn[nH]c1=O [P-0127, (R)-1-(5-cyano-6-oxo-1,6-dihydropyridazin-4-yl)pyrrolidin-3-yl cyclohexylcarbamate] | 0.001 to 10 | 0.001 to 10
5 | CS(=O)(=O)N[C@H]1CC[C@@H](NC(=O)O[C@@H]2CCN(c3cn[nH]c(=O)c3Cl)C2)CC1 [P-0128, (R)-1-(5-chloro-6-oxo-1,6-dihydropyridazin-4-yl)pyrrolidin-3-yl ((1s,4S)-4-(methylsulfonamido)cyclohexyl)carbamate] | 0.001 to 10 | 0.001 to 10
6 | CS(=O)(=O)N[C@H]1CC[C@H](NC(=O)O[C@@H]2CCN(c3cn[nH]c(=O)c3Cl)C2)CC1 [P-0129, (R)-1-(5-chloro-6-oxo-1,6-dihydropyridazin-4-yl)pyrrolidin-3-yl ((1r,4R)-4-(methylsulfonamido)cyclohexyl)carbamate] | 0.001 to 10 | 0.001 to 10
7 | O=C(NC1CCCCC1)O[C@@H]1CCN(c2cnn(-c3cccc(C(=O)O)c3)c(=O)c2Cl)C1 [P-0130, (R)-3-(5-chloro-4-(3-((cyclohexylcarbamoyl)oxy)pyrrolidin-1-yl)-6-oxopyridazin-1(6H)-yl)benzoic acid] | 10 to 100 | 10 to 100
8 | CC1(NC(=O)O[C@@H]2CCN(c3cn[nH]c(=O)c3Cl)C2)CCOCC1 [P-0133, (R)-1-(5-chloro-6-oxo-1,6-dihydropyridazin-4-yl)pyrrolidin-3-yl (4-methyltetrahydro-2H-pyran-4-yl)carbamate] | 0.001 to 10 | 0.001 to 10
9 | O=C(NC1(C(F)(F)F)CC1)O[C@@H]1CCN(c2cn[nH]c(=O)c2Cl)C1 [P-0134, (R)-1-(5-chloro-6-oxo-1,6-dihydropyridazin-4-yl)pyrrolidin-3-yl (1-(trifluoromethyl)cyclopropyl) carbamate] | 0.001 to 10 | 0.001 to 10
10 | Cn1cc(C2(NC(=O)O[C@@H]3CCN(c4cn[nH]c(=O)c4Cl)C3)CC2)cn1 [P-0137, (R)-1-(5-chloro-6-oxo-1,6-dihydropyridazin-4-yl)pyrrolidin-3-yl (1-(1-methyl-1H-pyrazol-4-yl)cyclopropyl)carbamate] | 0.001 to 10 | 0.001 to 10
11 | CC1(OC(=O)NC2CCC(F)(F)CC2)CCN(c2cn[nH]c(=O)c2Cl)C1 (centres unmarked) [P-0138, 1-(5-chloro-6-oxo-1,6-dihydropyridazin-4-yl)-3-methylpyrrolidin-3-yl (4,4-difluorocyclohexyl)carbamate] | 0.001 to 10 | 0.001 to 10
12 | C[C@H]1CN(c2cn[nH]c(=O)c2Cl)C[C@@H]1OC(=O)NC1CCC(F)(F)CC1 [P-0139, (3R,4S)-1-(5-chloro-6-oxo-1,6-dihydropyridazin-4-yl)-4-methylpyrrolidin-3-yl (4,4-difluorocyclohexyl)carbamate] | 0.001 to 10 | 0.001 to 10
13 | C[C@@H]1CN(c2cn[nH]c(=O)c2Cl)C[C@@H]1OC(=O)NC1CCC(F)(F)CC1 [P-0140, (3R,4R)-1-(5-chloro-6-oxo-1,6-dihydropyridazin-4-yl)-4-methylpyrrolidin-3-yl (4,4-difluorocyclohexyl)carbamate] | 10 to 100 | 0.001 to 10

The next lines start with the values.

Row | IC50 (human CD73) [µM] | IC50 [1] [µM] | Structure (SMILES)
14 | 0.001 to 10 | 0.001 to 10 | N#CC1CCC(NC(=O)O[C@@H]2CCN(c3cn[nH]c(=O)c3Cl)C2)CC1 (stereo partly drawn) [P-0114, (R)-1-(5-chloro-6-oxo-1,6-dihydropyridazin-4-yl)pyrrolidin-3-yl (4-cyanocyclohexyl)carbamate]
15 | 0.001 to 10 | 0.001 to 10 | O=C(NC1CC2(CCC2)C1)O[C@@H]1CCN(c2cn[nH]c(=O)c2Cl)C1 [P-0115, (R)-1-(5-chloro-6-oxo-1,6-dihydropyridazin-4-yl)pyrrolidin-3-yl spiro[3.3]heptan-2-ylcarbamate]
16 | 0.001 to 10 | 0.001 to 10 | O=C(NC1CC2CCC1O2)O[C@@H]1CCN(c2cn[nH]c(=O)c2Cl)C1 (stereo partly drawn) [P-0117, (R)-1-(5-chloro-6-oxo-1,6-dihydropyridazin-4-yl)pyrrolidin-3-yl (7-oxabicyclo[2.2.1]heptan-2-yl)carbamate]
17 | 0.001 to 10 | 0.001 to 10 | O=C(NC1CC(O)C1)O[C@@H]1CCN(c2cn[nH]c(=O)c2Cl)C1 (stereo partly drawn) [P-0119, (R)-1-(5-chloro-6-oxo-1,6-dihydropyridazin-4-yl)pyrrolidin-3-yl (3-hydroxycyclobutyl)carbamate]
18 | 0.001 to 10 | 0.001 to 10 | O=C(NC1CCN(C2CCCC2)CC1)O[C@@H]1CCN(c2cn[nH]c(=O)c2Cl)C1 [P-0121, (R)-1-(5-chloro-6-oxo-1,6-dihydropyridazin-4-yl)pyrrolidin-3-yl (1-cyclopentylpiperidin-4-yl)carbamate]
19 | 0.001 to 10 | 0.001 to 10 | CC(C)N1CCC(NC(=O)O[C@@H]2CCN(c3cn[nH]c(=O)c3Cl)C2)CC1 [P-0122, (R)-1-(5-chloro-6-oxo-1,6-dihydropyridazin-4-yl)pyrrolidin-3-yl (1-isopropylpiperidin-4-yl)carbamate]
20 | 0.001 to 10 | 0.001 to 10 | O=C(NC1CCN(c2ncccn2)CC1)O[C@@H]1CCN(c2cn[nH]c(=O)c2Cl)C1 [P-0123, (R)-1-(5-chloro-6-oxo-1,6-dihydropyridazin-4-yl)pyrrolidin-3-yl (1-(pyrimidin-2-yl)piperidin-4-yl)carbamate]
21 | 0.001 to 10 | 0.001 to 10 | NC1CCC(NC(=O)O[C@@H]2CCN(c3cn[nH]c(=O)c3Cl)C2)CC1 (stereo partly drawn) [P-0125, (R)-1-(5-chloro-6-oxo-1,6-dihydropyridazin-4-yl)pyrrolidin-3-yl (4-aminocyclohexyl)carbamate]
22 | 0.001 to 10 | 0.001 to 10 | O=C(N[C@H]1CC[C@H](O)CC1)O[C@@H]1CCN(c2cn[nH]c(=O)c2Cl)C1 [P-0131, (R)-1-(5-chloro-6-oxo-1,6-dihydropyridazin-4-yl)pyrrolidin-3-yl ((1r,4R)-4-hydroxycyclohexyl)carbamate]
23 | 0.001 to 10 | 0.001 to 10 | O=C(N[C@H]1CCCOC1)O[C@@H]1CCN(c2cn[nH]c(=O)c2Cl)C1 [P-0132, (R)-1-(5-chloro-6-oxo-1,6-dihydropyridazin-4-yl)pyrrolidin-3-yl ((S)-tetrahydro-2H-pyran-3-yl)carbamate]
24 | 0.001 to 10 | 0.001 to 10 | O=C(N[C@@H]1CCN(c2cn[nH]c(=O)c2Cl)C1)O[C@@H]1CCN(c2cn[nH]c(=O)c2Cl)C1 [P-0135, (R)-1-(5-chloro-6-oxo-1,6-dihydropyridazin-4-yl)pyrrolidin-3-yl ((R)-1-(5-chloro-6-oxo-1,6-dihydropyridazin-4-yl)pyrrolidin-3-yl)carbamate]
25 | 0.001 to 10 | 0.001 to 10 | O=C(N[C@H]1CCN(c2cn[nH]c(=O)c2Cl)C1)O[C@@H]1CCN(c2cn[nH]c(=O)c2Cl)C1 [P-0136, (R)-1-(5-chloro-6-oxo-1,6-dihydropyridazin-4-yl)pyrrolidin-3-yl ((S)-1-(5-chloro-6-oxo-1,6-dihydropyridazin-4-yl)pyrrolidin-3-yl)carbamate]

Source: US12509444B2, “Compounds and methods for CD73 modulation and indications therefor” (Plexxikon Inc., priority 2019, dated 2025)
